Laboratory results as given in patent publication US20240280561A1, “COMPOSITIONS AND METHODS FOR TREATING AND/OR IDENTIFYING AN AGENT FOR TREATING INTESTINAL CANCERS” (Dana-Farber Cancer Institute, Inc., priority 2022, published 2024).

B1: recombinant WNT3A: recombinant WNT3A used as a Wnt activator (protein, UniProt P56704 19-352, looked up)
Protein Wnt-3a: SYPIWWSLAVGPQYSSLGSQPILCASIPGLVPKQLRFCRNYVEIMPSVAEGIKIGIQECQHQFRGRRWNCTTVHDSLAIFGPVLDKATRESAFVHAIASAGVAFAVTRSCAEGTAAICGCSSRHQGSPGKGWKWGGCSEDIEFGGMVSREFADARENRPDARSAMNRHNNEAGRQAIASHMHLKCKCHGLSGSCEVKTCWWSQPDFRAIGDFLKDKYDSASEMVVEKHRESRGWVETLRPRYTYFKVPTERDLVYYEASPNFCEPNPETGSFGTRDRTCNVSSHGIDGCDLLCCGRGHNARAERRREKCRCVFHWCCYVSCQECTRVYDVHTCK

Columns and labels:
[1] = system: SOX9 expression in HT-115 cells; assay: SOX9 protein expression in CRC cells treated with WNT and TGF-β pathway agents (immunoblot); format: cell-based, human; conditions: CRC cells (HT-115)
Description: AXIN2, SOX9 and […] (loading control) protein expression in HT-115 (Apc Mutant) cells treated with DMSO, rWNT3A or indicated concentrations of WNT-inhibitor ICG-001 by immunoblot (middle panel). SOX9 and β-actin (loading control) protein expression in HT-115 cells expressing GFP or dominant-negative (dn) TCF4 (right panel); S.E.=short exposure, L.E.=long exposure. […] Protein expression of SOX9 and β-actin (loading control) in HT-115 cells treated with indicated concentration of rTGF-β or TGF-β inhibitor.
Immunoblot analysis was performed as previously described (Wong et al. (2018) Nature medicine 24: 968-977). Briefly, cells were lysed in RIPA buffer supplemented with a protease inhibitor cocktail (Roche). Whole cell extracts were resolved by SDS-PAGE, transferred to PVDF membranes, and probed with indicated primary antibodies. Bound antibodies were detected with horseradish peroxidase (HRP)-conjugated secondary antibodies and chemiluminescent HRP substrate.
The following agents were used: recombinant WNT3A as a Wnt activator and ICG-001 as a Wnt pathway inhibitor, all of which were employed at indicated concentrations and durations.
To examine whether SOX9 is regulated by stem cell and differentiation cues, the impact of the WNT and BMP/TGF-β signaling pathways on SOX9 expression, respectively, was evaluated. […]

[2] = system: PROM1 intronic enhancer reporter in HEK293T cells; assay: PROM1 enhancer GFP reporter assay; format: cell-based; conditions: GFP reporter transiently transfected into HEK293T cells
Description: A 537-bp region in intron 1 of PROM1 (hg19, ch4:[…], negative strand) was identified as a putative SOX9-regulated enhancer based on V5-SOX9 and H3K27Ac CHIP data. PCR-amplified products or gene blocks (gBlocks, IDT) consisting of the putative PROM1 enhancer, a minimal promoter, eGFP, and PGK-hygromycin resistance cassette was cloned into the lentiviral LV 1-5 backbone vector using Gibson modular assembly platform (Akama-Garren et al. (2016) Sci Rep 6: 16836). Briefly, PROM1 enhancer was generated as a gBlock by adding the following primer sequencing to the 5′ and 3′ end of the 537-bp region, respectively: 5′→3′ Forward (site 1), […] and 5′→3′ Reverse, […] (site 2); the minimal promoter was PCR amplified from the 7TFP WT CDH1 reporter plasmid using the following primer sequences: 5′→3′ Forward (includes site 2), […] and 5′→3′ Reverse, AGGCCTCGGGATTcctagg[…] (includes site 3); eGFP was generated by adding the following primer sequences to the 5′ and 3′ end, respectively: 5′→3′ Forward (site 3), AAACCGCTGTTcctaggAATCCCGAGGCCT and 5′→3′ Reverse, GACCCGACATTagcgctACAGCTTAAGCGG (site 4); and PGK-hygro was PCR amplified from plenti-PGK-hygro-gateway destination vector using the following primers: 5′→3′ Forward (includes site 4), GACCCGACATTagcgct[…] […]
To investigate the precise mechanism of PROM1 activation, V5-SOX9 and H3K27Ac CHIP-seq data were analyzed. […]

Molecule	SOX9 expression [1]	PROM1 enhancer reporter activity, stimulation [2] [fold]
O=C1[C@H](Cc2ccc(O)cc2)N2C(=O)CCN(C(=O)NCc3ccccc3)[C@H]2CN1Cc1cccc2ccccc12 [ICG-001]	reduced SOX9 expression	–
B1	–	3
